Series [1] in a line: PAMPA-BBB membrane permeability assay. Particulars: pig, PAMPA, 100 μg/ml, pH 7.4. The method, then:
The blood–brain barrier limits drug access into the brain, due to tight junctions, membrane drug transporters, and unique lipid composition. Porcine whole-brain lipid is successfully used in passive permeability test for CNS drugs.
The parallel artificial membrane permeation assay (PAMPA) was carried out in a sandwich-like 96-well PAMPA plate formed by a top filter plate containing acceptor wells and a bottom plate containing donor wells. Each composite well was divided into two chambers: 300 μl of donor solution (test article or QC standards) at the bottom and 200 μl of acceptor buffer (PBS buffer containing 5% DMSO) at the top, separated by a polyvinylidene fluoride (PVDF, 0.45 μm pore size) membrane, coated with 4 μl of 20 mg/ml porcine polar brain lipid (PBL) in n-dodecane. […] The final DMSO concentration in working stock solution is 5%. Each compound was performed in triplicate. The test compound diffused from the donor well through the lipid membrane and into the acceptor well. The sandwich plate was placed with the plate lid and incubated at room temperature for approximately 18 h. After reaching diffusion equilibration, the PAMPA sandwich plate was disassembled and the concentration of drug in the acceptor, the donor, and the reference wells was determined using a TECAN microplate reader (Durham, NC, USA).
(In general: In PAMPA a lipid-coated filter parts donor from acceptor wells.)

The conditions of series [2]: PAMPA-BBB, known value; no reference given; cited from earlier work.

Each structure is given as a SMILES string.

`c1cc2c(cc1[C@H]1OC[C@H]3[C@@H]1CO[C@@H]3c1ccc3c(c1)OCO3)OCO2` [Sesamin, sesamin]: in series [1], the Pe was 0.00 ± 0.01 10^ -6 cm/s.

Consider `Cn1c(=O)c2[nH]cnc2n(C)c1=O` [Theophylline, theophylline], for which the “Known Pe” value in series [2] is 0.12 ~ 0.18 10^ -6 cm/s.

The values above are taken from paper PMC3975964, “Protective effect of a sesamin derivative, 3-bis (3-methoxybenzyl) butane-1, 4-diol on ischemic and hypoxic neuronal injury” (Journal of Biomedical Science, 2014).
